The structures appear in SMILES notation. pEC50, pIC50: −log10 of the molar value. Entries after “also recorded” stand apart in the source; their conditions may differ.

We go through two compounds from patent US7173004B2, “Macrocyclic isoquinoline peptide inhibitors of hepatitis C virus” (Bristol-Myers Squibb Company, priority 2003, dated 2007).

Assay [1] relates to human pancreatic chymotrypsin. As to the kind of experiment: Specificity assay, chymotrypsin. The format is biochemical. The note with it: read-out: Chymotrypsin activity in the specificity assays (IC50). The protocol:
The specificities of compounds of the present invention were determined against a variety of serine proteases: human neutrophil elastase (HNE), porcine pancreatic elastase (PPE) and human pancreatic chymotrypsin and one cysteine protease: human liver cathepsin B. In all cases a 96-well plate format protocol using calorimetric p-nitroaniline (pNA) substrate specific for each enzyme was used as described previously (PCT Patent Application No. WO 00/09543) with some modifications to the serine protease assays. All enzymes were purchased from Sigma while the substrates were from Bachem.
Each assay included a 2 hr enzyme-inhibitor pre-incubation at room temperature followed by addition of substrate and hydrolysis to ˜30% conversion as measured on a Spectramax Pro microplate reader. Compound concentrations varied from 100 to 0.4 micromolar (“μM”) depending on their potency. […]
The percentage of inhibition was calculated using the formula: [1−((UVinh−UVblank)/(UVctl−UVblank))]×100 […]

In assay [2] the test system is HCV replicon. In words: Three-drug combination studies in HCV replicon system, combination index. Format: cell-based. The protocol:
[…] an NS5B replicase inhibitor (compound 2006; WO 03/010141), were tested in 2-drug combinations with the macrocyclic HCV NS3 protease inhibitor compound 28. In addition, compound 28 was also tested in 3-drug combinations with the NS5A and NS5B inhibitors.
For the experiments shown in Tables 8 and 9, inhibitors were tested at eleven concentrations each. 200× stock solutions of each inhibitor concentration were prepared by 2- or 3-fold dilution in DMSO prior to addition to cells/media. The drugs were tested as monotherapies and in combination with the NS3 protease inhibitor at various concentration ratios. Cells were exposed to compounds for 4 days and the amount of HCV inhibition was then determined using the FRET assay. The potential cytotoxicities of these combined agents were also analyzed in parallel by Alamar Blue staining. […] The degree of antagonism, additivity, or synergy was determined over a range of drug concentrations, and combination response curves were fit to assess the antiviral effects of the drug treatment combinations. The concentration ratios were analyzed using the method of Chou (Chou, Ting-Chao, and Rideout (Editors), (1991) Synergism and Antagonism in Chemotherapy, P. 61–101, Academic Press, New York). Tables 8 and 9 report the estimated EC50 values for the compounds tested, as well as the combination indices (CI). All estimates were computed using SAS Proc NLIN, and a two-parameter logistic. All combination indices were tested for departure from additivity using isobologram methods. Asymptotic confidence intervals were also calculated for each of the combination indices. These intervals are used to test for departure from additivity by comparing the bounds to one—a lower bound of the interval greater than 1 indicates antagonism, an upper bound of less than 1 indicates synergism, and a value of 1 contained in the interval indicates additivity.
Compound 28 was also tested in 3-drug combination experiments with the NS5A inhibitor and the NS5B inhibitor (Table 12). The starting concentrations for the mono-therapies consisted of a 0.667 μM solution of the NS5A inhibitor, a 0.3 μM solution of compound 28, and a 2.5 μM solution of the NS5B inhibitor. The starting concentration for the triple combination contained a mixture of ⅓ of each of the above concentrations. Dose response curves for all three mono-therapies and the triple combination therapy were obtained using 3-fold dilutions, and data analysis was carried out as described above for combination index experiments.

One may read the pIC50 as the IC50 on a negative log10 scale, so that one unit is a factor of ten. In the case of `CC(C)(C)OC(=O)N[C@H]1CCCCC/C=C\[C@@H]2C[C@@]2(C(=O)NS(C)(=O)=O)NC(=O)[C@@H]2C[C@@H](Oc3nccc4ccccc34)CN2C1=O` [Compound 2, [18-(Isoquinolin-1-yloxy)-4-methanesulfonylaminocarbonyl-2,15-dioxo-3,16-diaza-tricyclo[14.3.0.0^4,6]nonadec-7-en-14-yl]-carbamic acid tert-butyl ester], the pIC50 in assay [1] was < 4.00.

The pEC50 is the negative decadic logarithm of the EC50, by convention in mol/L. As to `COc1ccc2c(OC3CC4C(=O)NC5(C(=O)NS(=O)(=O)C6CC6)CC5C=CCOCCCC(NC(=O)OC(C)(C)C)C(=O)N4C3)nccc2c1` (stereo not drawn) [Compound 28, [4-Cyclopropanesulfonylaminocarbonyl-18-(6-methoxy-isoquinolin-1-yloxy)-2,15-dioxo-10-oxa-3,16-diaza-tricyclo[14.3.0.0^4,6]nonadec-7-en-14-yl]-carbamic acid tert-butyl ester], the “combination effect, 3-drug combination with the NS5A inhibitor and the NS5B inhibitor” value in assay [2] (75, 90 and 95% effective doses) was “Synergistic effects; also recorded: No drug antagonism”. Further, the pEC50 in assay [2] (Hepatitis C virus, mono-therapy in the three-drug combination experiment, HCV replicon, NS3 Pr inhibitor is compound 28, read-out: NS3 Pr inhibitor EC50) is 8.10.
